We go through 5 compounds from US12281149B2, “Modulators of G-protein coupled receptors” (priority 2021, dated 2025).

What all share (type): cell-based
Assay [1] has as its target T1, GIP receptor (Homo sapiens, UniProt P48546).
T1 sequence (P48546 22-466): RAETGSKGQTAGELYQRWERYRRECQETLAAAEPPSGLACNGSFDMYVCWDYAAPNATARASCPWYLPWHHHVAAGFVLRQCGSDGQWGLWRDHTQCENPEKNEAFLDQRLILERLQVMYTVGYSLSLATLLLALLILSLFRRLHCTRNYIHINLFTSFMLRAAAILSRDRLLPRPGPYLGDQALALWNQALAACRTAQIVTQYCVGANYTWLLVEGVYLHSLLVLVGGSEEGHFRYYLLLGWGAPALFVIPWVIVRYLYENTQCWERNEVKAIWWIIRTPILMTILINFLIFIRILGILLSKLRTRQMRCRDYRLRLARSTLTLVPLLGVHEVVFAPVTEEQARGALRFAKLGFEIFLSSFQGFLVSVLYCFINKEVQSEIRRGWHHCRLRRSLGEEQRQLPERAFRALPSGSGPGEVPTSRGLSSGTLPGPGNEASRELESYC
Put plainly: HitHunter cAMP assay, GIP receptor. The following applies: for Emax: read-out: Emax GIP-1R.

For assay [2], the target named is T2, GLP-1 receptor (Homo sapiens, UniProt P43220). In words: PathHunter β-arrestin assay, GLP-1 receptor. Also on record: host or cells: PathHunter CHO-K1 GLP1R β-Arrestin Cell Line.
T2 sequence (P43220 24-463): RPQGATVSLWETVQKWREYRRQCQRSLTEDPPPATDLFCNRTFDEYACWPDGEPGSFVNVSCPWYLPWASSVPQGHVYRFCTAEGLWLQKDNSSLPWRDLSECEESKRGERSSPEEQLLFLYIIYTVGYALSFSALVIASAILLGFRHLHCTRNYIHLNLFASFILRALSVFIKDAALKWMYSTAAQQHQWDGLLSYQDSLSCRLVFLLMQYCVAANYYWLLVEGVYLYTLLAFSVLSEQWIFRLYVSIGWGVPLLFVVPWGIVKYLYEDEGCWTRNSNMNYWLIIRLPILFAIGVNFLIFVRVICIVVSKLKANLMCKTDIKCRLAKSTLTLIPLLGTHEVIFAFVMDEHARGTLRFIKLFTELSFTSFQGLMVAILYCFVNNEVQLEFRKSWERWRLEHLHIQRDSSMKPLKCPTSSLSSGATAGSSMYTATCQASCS
The target in assay [3] is T1, GIP receptor. In words: PathHunter β-arrestin assay, GIP receptor. Also on record: host or cells: PathHunter CHO-K1 GIPR β-Arrestin Cell Line.
Assay [4] deals with T2, GLP-1 receptor. Put plainly: HitHunter cAMP assay, GLP-1 receptor. The following applies: for Emax: read-out: Emax GLP-1R.
Setting [5] is: CHO cells stably expressing GIP receptor, cAMP accumulation, 30 min, read-out: EC50 GIP-1R.
[6] abbreviates: CHO cells, cAMP, normalized to maximum signal from GIP (high) and DMSO (low).
[7] abbreviates: β-arrestin-2 recruitment, PathHunter CHO-K1 GLP1R β-Arrestin Cell Line, 90 min at 37° C., normalized to GLP-1, read-out: GLP-1R β Arrestin EC50.
Where [8] appears, read: β-arrestin-2 recruitment, PathHunter CHO-K1 GIPR β-Arrestin Cell Line, 90 min at 37° C., normalized to GIP, read-out: GIPR β Arrestin EC50.
Setting [9] is: CHO cells stably expressing human GLP-1 receptor, cAMP accumulation, 30 min, read-out: EC50 GLP-1R.
Where [10] appears, read: CHO cells, cAMP, normalized to maximum signal from GLP-1 (high) and DMSO (low).

Each structure is given as a SMILES string. Read-outs that look alike come from different tables or passages of the source. *1 amine or outer side, *2 acyl side, *3 side chain or, on linkers, in order; H or OH if unused. Where a SMILES comes first, the peptide text is derived from it. Side-chain parts run from the residue outwards. [ ]: non-standard residue; d: D form. The star is where a group is joined. Isobutyryl(2-(3-CN-5-F-Ph)) = CC(C)(C(=O)*)c1cc(F)cc(C#N)c1; C20 diacid = O=C(O)CCCCCCCCCCCCCCCCCCC(=O)*; γGlu = O=C(O)[C@H](CCC(=O)[*:2])N[*:1]; X20 = O=C(C1(c2ccc(Cl)cc2)CCOCC1)*; NH(4-Cl-phenyl) = Clc1ccc(N*)cc1; β3hE = N[C@@H](CCC(=O)O)CC(=O)O; X15 = O=C(C1(c2cccc(F)c2)CC1)*; X82 = CC(C)(C(=O)*)n1cc(N)cn1; AEEA = NCCOCCOCC(=O)O; Aib = CC(C)(N)C(=O)O; CO = O=C([*:1])[*:2]; GABA = NCCCC(=O)O; βAla = NCCC(=O)O

Take `CC[C@H](C)[C@H](NC(=O)[C@H](CC(C)C)NC(=O)[C@H](Cc1c[nH]c2ccccc12)NC(=O)[C@H](CCC(N)=O)NC(=O)[C@@H](NC(=O)[C@H](Cc1ccccc1)NC(=O)[C@H](C)NC(=O)[C@H](CCCCNC(=O)COCCOCCNC(=O)COCCOCCNC(=O)CC[C@H](NC(=O)CCCCCCCCCCCCCCCCCCC(=O)O)C(=O)O)NC(=O)[C@H](CCC(N)=O)NC(=O)[C@H](C)NC(=O)[C@@H](NC(=O)[C@H](CCCCN)NC(=O)[C@H](CC(=O)O)NC(=O)[C@H](CC(C)C)NC(=O)C(C)(C)NC(=O)[C@@H](NC(=O)[C@H](CO)NC(=O)[C@H](Cc1ccc(O)cc1)NC(=O)[C@H](CC(=O)O)NC(=O)[C@H](CO)NC(=O)[C@@H](NC(=O)[C@H](Cc1ccccc1)NC(=O)[C@@H](NC(=O)CNC(=O)[C@H](CCC(=O)O)NC(=O)CCNC(=O)C(C)(C)n1cc(N)cn1)[C@@H](C)O)[C@@H](C)O)[C@@H](C)CC)[C@@H](C)CC)C(C)C)C(=O)N[C@@H](C)C(=O)NCC(=O)NCC(=O)N1CCC[C@H]1C(=O)N[C@@H](CO)C(=O)N[C@@H](CO)C(=O)NCC(=O)N[C@@H](C)C(=O)N1CCC[C@H]1C(=O)N1CCC[C@H]1C(=O)N1CCC[C@H]1C(=O)N[C@@H](CO)C(N)=O` [Compound 157] ({X82-βAla}-EGTFTSDYSI[Aib]LDKIAQK([AEEA-AEEA-γGlu-C20 diacid])AFVQWLIAGGPSSGAPPPS-NH2): the EC50 is 10 to 100 nM at GIP receptor [1] (setting [5]), greater than 1000 nM on GLP-1 receptor [2] (setting [7]), greater than 1000 nM at GIP receptor [3] (setting [8]) and 0.1 to 1 nM at GLP-1 receptor [4] (setting [9]). The values for the Emax at GIP receptor [1] (setting [6]) and at GLP-1 receptor [4] (setting [10]) were 106% and 100%, respectively.
With `CC[C@H](C)[C@H](NC(=O)[C@H](CC(C)C)NC(=O)[C@H](Cc1c[nH]c2ccccc12)NC(=O)[C@H](CCC(N)=O)NC(=O)[C@@H](NC(=O)[C@H](Cc1ccccc1)NC(=O)[C@H](C)NC(=O)[C@H](CCCCNC(=O)COCCOCCNC(=O)COCCOCCNC(=O)CC[C@H](NC(=O)CCCCCCCCCCCCCCCCCCC(=O)O)C(=O)O)NC(=O)[C@H](CCC(N)=O)NC(=O)[C@H](C)NC(=O)[C@@H](NC(=O)[C@H](CCCCN)NC(=O)[C@H](CC(=O)O)NC(=O)[C@H](CC(C)C)NC(=O)C(C)(C)NC(=O)[C@@H](NC(=O)[C@H](CO)NC(=O)[C@H](Cc1ccc(O)cc1)NC(=O)[C@H](CC(=O)O)NC(=O)[C@H](CO)NC(=O)[C@@H](NC(=O)[C@H](Cc1ccccc1)NC(=O)[C@@H](NC(=O)CNC(=O)[C@H](CCC(=O)O)NC(=O)CCNC(=O)C1(c2cccc(F)c2)CC1)[C@@H](C)O)[C@@H](C)O)[C@@H](C)CC)[C@@H](C)CC)C(C)C)C(=O)N[C@@H](C)C(=O)NCC(=O)NCC(=O)N1CCC[C@H]1C(=O)N[C@@H](CO)C(=O)N[C@@H](CO)C(=O)NCC(=O)N[C@@H](C)C(=O)N1CCC[C@H]1C(=O)N1CCC[C@H]1C(=O)N1CCC[C@H]1C(=O)N[C@@H](CO)C(N)=O` [Compound 206] ({X15-βAla}-EGTFTSDYSI[Aib]LDKIAQK([AEEA-AEEA-γGlu-C20 diacid])AFVQWLIAGGPSSGAPPPS-NH2), the EC50 at GIP receptor [1] (setting [5]) was 10 to 100 nM; on GLP-1 receptor [2] (setting [7]), greater than 1000 nM; at GIP receptor [3] (setting [8]) it was greater than 1000 nM; at GLP-1 receptor [4] (setting [9]), 1 to 10 nM. Further, the Emax came out at 106% at GIP receptor [1] (setting [6]) and 98% at GLP-1 receptor [4] (setting [10]).
`CC[C@H](C)[C@H](NC(=O)[C@H](CC(C)C)NC(=O)[C@H](Cc1c[nH]c2ccccc12)NC(=O)[C@H](CCC(N)=O)NC(=O)[C@@H](NC(=O)[C@H](Cc1ccccc1)NC(=O)[C@H](C)NC(=O)[C@H](CCCCNC(=O)COCCOCCNC(=O)COCCOCCNC(=O)CC[C@H](NC(=O)CCCCCCCCCCCCCCCCCCC(=O)O)C(=O)O)NC(=O)[C@H](CCC(N)=O)NC(=O)[C@H](C)NC(=O)[C@@H](NC(=O)[C@H](CCCCN)NC(=O)[C@H](CC(=O)O)NC(=O)[C@H](CC(C)C)NC(=O)C(C)(C)NC(=O)[C@@H](NC(=O)[C@H](CO)NC(=O)[C@H](Cc1ccc(O)cc1)NC(=O)[C@H](CC(=O)O)NC(=O)[C@H](CO)NC(=O)[C@@H](NC(=O)[C@H](Cc1ccccc1)NC(=O)[C@@H](NC(=O)CNC(=O)[C@H](CCC(=O)O)NC(=O)CCCNC(=O)CNC(=O)Nc1ccc(Cl)cc1)[C@@H](C)O)[C@@H](C)O)[C@@H](C)CC)[C@@H](C)CC)C(C)C)C(=O)N[C@@H](C)C(=O)NCC(=O)NCC(=O)N1CCC[C@H]1C(=O)N[C@@H](CO)C(=O)N[C@@H](CO)C(=O)NCC(=O)N[C@@H](C)C(=O)N1CCC[C@H]1C(=O)N1CCC[C@H]1C(=O)N1CCC[C@H]1C(=O)N[C@@H](CO)C(N)=O` [Compound 270] ({NH(4-Cl-phenyl)-CO}-G[GABA]EGTFTSDYSI[Aib]LDKIAQK([AEEA-AEEA-γGlu-C20 diacid])AFVQWLIAGGPSSGAPPPS-NH2): the EC50 on GIP receptor [1] is 1 to 10 nM; at GLP-1 receptor [2], greater than 1000 nM; at GIP receptor [3], less than 1000 nM; on GLP-1 receptor [4], 10 to 100 nM. Moreover, the results for the maximum response (Emax) on GIP receptor [1] (CHO) and at GLP-1 receptor [4] (CHO) were 104% and 91%, respectively.
On to `CC[C@H](C)[C@H](NC(=O)[C@H](CC(C)C)NC(=O)[C@H](Cc1c[nH]c2ccccc12)NC(=O)[C@H](CCC(N)=O)NC(=O)[C@@H](NC(=O)[C@H](Cc1ccccc1)NC(=O)[C@H](C)NC(=O)[C@H](CCCCNC(=O)COCCOCCNC(=O)COCCOCCNC(=O)CC[C@H](NC(=O)CCCCCCCCCCCCCCCCCCC(=O)O)C(=O)O)NC(=O)[C@H](CCC(N)=O)NC(=O)[C@H](C)NC(=O)[C@@H](NC(=O)[C@H](CCCCN)NC(=O)[C@H](CC(=O)O)NC(=O)[C@H](CC(C)C)NC(=O)C(C)(C)NC(=O)[C@@H](NC(=O)[C@H](CO)NC(=O)[C@H](Cc1ccc(O)cc1)NC(=O)[C@H](CC(=O)O)NC(=O)[C@H](CO)NC(=O)[C@@H](NC(=O)[C@H](Cc1ccccc1)NC(=O)[C@@H](NC(=O)CNC(=O)C[C@H](CCC(=O)O)NC(=O)CCNC(=O)C(C)(C)c1cc(F)cc(C#N)c1)[C@@H](C)O)[C@@H](C)O)[C@@H](C)CC)[C@@H](C)CC)C(C)C)C(=O)N[C@@H](C)C(=O)NCC(=O)NCC(=O)N1CCC[C@H]1C(=O)N[C@@H](CO)C(=O)N[C@@H](CO)C(=O)NCC(=O)N[C@@H](C)C(=O)N1CCC[C@H]1C(=O)N1CCC[C@H]1C(=O)N1CCC[C@H]1C(=O)N[C@@H](CO)C(N)=O` [Compound 116] ({Isobutyryl(2-(3-CN-5-F-Ph))-βAla}-[β3hE]GTFTSDYSI[Aib]LDKIAQK([AEEA-AEEA-γGlu-C20 diacid])AFVQWLIAGGPSSGAPPPS-NH2), for which the EC50 was 100 to 1000 nM on GIP receptor [1] (setting [5]), greater than 1000 nM on GLP-1 receptor [2] (setting [7]), greater than 1000 nM on GIP receptor [3] (setting [8]) and 10 to 100 nM on GLP-1 receptor [4] (setting [9]). The Emax at GIP receptor [1] (setting [6]) was found to be 66%; on GLP-1 receptor [4] (setting [10]), 94%.
In the case of `CC[C@H](C)[C@H](NC(=O)[C@H](CC(C)C)NC(=O)[C@H](Cc1c[nH]c2ccccc12)NC(=O)[C@H](CCC(N)=O)NC(=O)[C@@H](NC(=O)[C@H](Cc1ccccc1)NC(=O)[C@H](C)NC(=O)[C@H](CCCCNC(=O)COCCOCCNC(=O)COCCOCCNC(=O)CC[C@H](NC(=O)CCCCCCCCCCCCCCCCCCC(=O)O)C(=O)O)NC(=O)[C@H](CCC(N)=O)NC(=O)[C@H](C)NC(=O)[C@@H](NC(=O)[C@H](CCCCN)NC(=O)[C@H](CC(=O)O)NC(=O)[C@H](CC(C)C)NC(=O)C(C)(C)NC(=O)[C@@H](NC(=O)[C@H](CO)NC(=O)[C@H](Cc1ccc(O)cc1)NC(=O)[C@H](CC(=O)O)NC(=O)[C@H](CO)NC(=O)[C@@H](NC(=O)[C@H](Cc1ccccc1)NC(=O)[C@@H](NC(=O)CNC(=O)[C@H](CCC(=O)O)NC(=O)CCNC(=O)C1(c2ccc(Cl)cc2)CCOCC1)[C@@H](C)O)[C@@H](C)O)[C@@H](C)CC)[C@@H](C)CC)C(C)C)C(=O)N[C@@H](C)C(=O)NCC(=O)NCC(=O)N1CCC[C@H]1C(=O)N[C@@H](CO)C(=O)N[C@@H](CO)C(=O)NCC(=O)N[C@@H](C)C(=O)N1CCC[C@H]1C(=O)N1CCC[C@H]1C(=O)N1CCC[C@H]1C(=O)N[C@@H](CO)C(N)=O` [Compound 172] ({X20-βAla}-EGTFTSDYSI[Aib]LDKIAQK([AEEA-AEEA-γGlu-C20 diacid])AFVQWLIAGGPSSGAPPPS-NH2), the EC50 on GIP receptor [1] (setting [5]) is 1 to 10 nM; on GLP-1 receptor [2] (setting [7]), greater than 1000 nM; at GIP receptor [3] (setting [8]), greater than 1000 nM; at GLP-1 receptor [4] (setting [9]), 1 to 10 nM. For the same compound, the Emax on GIP receptor [1] (setting [6]) is 109%; on GLP-1 receptor [4] (setting [10]), 89%.
